Test results taken from patent US20240238278A1, “Pharmaceutical Composition for Preventing or Treating Fibrosis” (Daewoong Pharmaceutical Co., Ltd., priority 2021, published 2024).

What was measured:
[1] = test system: animal model of pulmonary fibrosis; test: Inflammation cell count analysis in BALF; assay type: in vivo; conditions: BLM mice, PO, day 21; first component 10 mg/kg, NIN 60 mg/kg, PID 200 mg/kg
Description: (§1) 70-100 uL of BLM solution (bleomycin 1-3 mg/kg) was administered to a lung of the acclimatized experimental animals using a catheter for 5 days or more. In accordance with the purpose of the test, the test drug was administered 7 days after BLM administration, and the drug was orally administered for 2 weeks until the 21st day of BLM administration.
At the sacrifice on the 21st day of administration, BALF (Bronchoalveolar lavage fluid) cells obtained through airway washing of mice were diluted with 1.05×PBS and attached to a slide, and then the slide was immersed and removed for 30 seconds in the order of 1, 2, 3 diff quick stain solution, and stained. It was counted based on 500 cells. Macrophages are the largest in size, mononuclear, and stained blue. Neutrophils and eosinophils form polynuclear cells, but eosinophils are stained red with eosin and distinguished from neutrophils. Lymphocytes have very less cytoplasm and are small in size as monocytes.

[2] = test system: animal model of pulmonary fibrosis; test: Lung function evaluation (SpO2) in BLM animal model; assay type: in vivo, mouse; conditions: BLM mice, PO, day 21, first component 10 mg/kg, NIN 60 mg/kg, PID 200 mg/kg; for SpO2 Differance / SpO2 Rate of increase: vs vehicle
Description: as §1
This lung function evaluation is the most direct and important evaluation index that has the greatest influence on the symptoms and quality of life of patients with pulmonary fibrosis, and is an experiment that can most directly show the effect of improving lung function in an animal model of pulmonary fibrosis by measuring the oxygen concentration in the body.
On the 21st day, it was measured with a SpO2 measuring device (Berry, Veterinary Pulse Oximeter) via the abdominal side of the mouse, and the results are shown in Table 5 and FIG. 3.

[3] = Pharmacokinetic test after single oral administration in ICR mice; assay type: in vivo; conditions: mouse, blood, ICR mice (male), 10 mg/kg
Description: The pharmacokinetic parameters were calculated using Excel® and WinNonlin6.1 software for the blood drug concentration according to the change over time obtained through LC-MS/MS, and changes in the blood concentration of the first component are shown in Table 11 and FIG. 9.

DHLF cell line = test: Non-clinical anti-fibrotic efficacy: Western blotting of TGF-β treated DHLF cell line; assay type: cell-based; conditions: TGF-β 10 ng/ml, 72 hours
Description: 10 mM of the first component was diluted with DMSO so as to be to 100 uM. It was diluted with DMSO so as to be 10, 3, 1 uM, and 10 mM of the second component (NIN) was diluted with DMSO to be 50 nM.
A DHLF cell line (FGM™-2 Bullet Kit™, 10% FBS), which is a lung fibrosis cell line, was prepared, and cultured in a T75 Easy Flask Filter at 37° C. and 5% CO2 using FBM medium. The cultured DHLF cell line was treated with 10 ng/mL of TGF-β and the test drug alone or in combination, cultured for 72 hours, then the media was removed, the protein was extracted, and the extracted protein was quantified using the BCA Protein Assay Kit. Based on the quantitative value of each extracted protein, 10 to 20 ug of protein was subjected to Western blotting. The protein after running was transferred to the PVDF membrane. After TBS-T washing 3 times, each PVDF membrane was treated with 1 mL of ECL solution, and then the protein expression level was measured using an AI680 imager. Each band value was calculated as a numerical value normalized compared to β-actin through ImageJ, and is shown in Tables 2 and 3 and FIGS. 1 and 2 below.

[4] = test system: animal model of pulmonary fibrosis; test: Measurement of total collagen content in lung (INSOLUBLE Collagen Assay); assay type: in vivo, mouse; conditions: BLM mice, PO, day 21, n 9; first component 10 mg/kg, NIN 60 mg/kg, PID 200 mg/kg
Description: as §1
In this experimental example, analysis was performed using INSOLUBLE Collagen Assay (Biocolor, S2000). After sacrifice on the 21st day, the cryopreserved lung tissue was pulverized by adding 100 uL of Fragmentation Reagent, and then, 100 uL of 37% HCl was added and incubated at 65° C. for 3 hours. The contents of the tube were shaken at 30 minute intervals to aid tissue disintegration. After centrifugation, the concentration was adjusted to 100 μL and collagen staining was proceeded to prepare a sample. Absorbance was measured at 560 nm.

[5] = Measurement of change in body weight in BLM animal model; assay type: in vivo, mouse; parameters: unit not given here; conditions: BLM mice, first component 10 mg/kg, NIN 60 mg/kg, PID 200 mg/kg
Description: as §1
The body weight was measured once every 0, 7, 14, 17, and 21 days for 3 weeks, and from the 14th day when the drug effect began to be noticeable after the administration, it was measured every 3 days.

[6] = test system: animal model of pulmonary fibrosis; test: Histopathology (Ashcroft score) analysis, Fibrotic Index; assay type: in vivo, mouse; conditions: BLM mice, PO, day 21; first component 10 mg/kg, PID 200 mg/kg
Description: as §1
The degree of fibrosis and inflammation of the lung tissue were visually observed through a microscope, and the degree of fibrosis of lung tissue was measured with a Fibrotic Index according to normalized criteria. The higher the Fibrotic Index value, the more severe the degree and symptom of fibrosis. It is interpreted that as the value is lower, the symptom is alleviated.
On the 21st day, lung tissue was separated and stained using H&E and MT stain, and observed under a microscope at 200× magnification. The observed results were scored by Ashcroft (Hubner et al., 2008). The fibrotic index was calculated by dividing the sum of the adjusted Ashcroft field scores by the number of fields tested, and shown in Table 7 and FIG. 4.

[7] = Table 2, first component 10 ug/ml alone
[8] = Table 3, first component 5 ug/ml alone

| SMILES | Eosinophil count in BALF [1] | Lymphocyte count in BALF [1] | Macrophage count in BALF [1] | Neutrophil count in BALF [1] | total cell in BALF [1] | SpO2 Average value [2] | SpO2 Differance [2] | SpO2 Rate of increase [2] [%] | total collagen content in lung (hydroxyproline value, ratio compared with normal group) [4] | change in body weight ([5]; Day 0) | change in body weight ([5]; Day 7) | change in body weight ([5]; Day 14) | change in body weight ([5]; Day 17) | change in body weight ([5]; Day 21) | Fibrotic Index (±SEM) [6] | other results |
| --- | --- | --- | --- | --- | --- | --- | --- | --- | --- | --- | --- | --- | --- | --- | --- | --- |
| O[C@H]1CCCN[C@@H]1CCCn1cnc2c(Cl)c(Cl)ccc21 [First component] | 0 | 7 | 60 | 17 | 84 10^4 | 79.1 | 3.1 | 4 | 228 | 0.0 | −10.1 | −22.7 | −22.2 | −20.5 | 4.6 (±0.6) | AUC(0-inf) [3]: 1190 ng·h/mL; AUC(0-t) [3]: 1070 ± 210 ng·h/mL; Cmax [3]: 263 ± 32 ng/mL; Tmax [3]: 2.67 ± 1.15 h; half-life [3]: 2.5 ± 2.48 h; COL1A1 Relative value (based on control) (DHLF cell line; [7]): 3.26; SMA-α Relative value (based on control) (DHLF cell line; [7]): 1.66; COL1A1 Relative value (based on control) (DHLF cell line; [8]): 3.84; SMA-α Relative value (based on control) (DHLF cell line; [8]): 3.53 |
| Cc1ccc(=O)n(-c2ccccc2)c1 [Second component (PID), Pirfenidone] | 0 | 6 | 55 | 12 | 74 10^4 | 81.7 | 5.7 | 7 | 156 | 0.0 | −10.2 | −22.7 | −18.1 | −16.5 | 3.7 (±0.7) | SpO2 Rate of increase ([2]; listed as PID): 7% |
